Reference: US11576913B2 (priority 2018, dated 2023)
Read-outs that look alike come from different tables or passages of the source.

Columns and labels:
[1] = test system: subjects suffering from the Insomnia Disorder adult insomnia; format: in vivo, human
Description: Following the evening-time dosing with study drug, subjects underwent eight hours of continuous PSG recording. Next-day residual effects were assessed by the DSST and the KSS evaluation, collected in that order, starting at approximately 30 minutes after “lights-on.” All tests were administered in the clinical unit, beginning 30 minutes after lights-on and periodically thereafter for approximately 16 hours post-lights-off, following completion of PSG recording. Each subject also completed a post-sleep questionnaire once after lights-on so that subjective impressions could be assessed about the “quality” and “quantity” of their sleep. Before the second night dosing in each dosing period, subjects were evaluated for any residual sleepiness. […] Subjects remained in the clinic until residual symptoms were minimized.
The well-known DSST is a paper-and-pencil neuropsychological test that explores attention and psychomotor speed and was therefore useful as an indication of next day residual effects, if any. When administered in multiple sessions over time, the DSST provided an objective indication of the change in performance.
Each subject was asked to match symbols with their corresponding digit as follows. […] The subject filled in as many squares as possible during the allowed 90 second time limit. The score was determined from the number of correct symbols. An untimed 7 blank square practice opportunity was provided before the 90 second time period began. Six different versions of the test were used to avoid learning effects that could occur if only a single version was used.
The DSST was administered starting approximately ½ hour after lights-on (i.e., about 9 hours post-dosing) and at about 1, 3, 4, 5, and 7 hours thereafter following completion of PSG recordings after each night of the baseline visit (Visit 2) and after each night of Dosing Periods 1-5.
The DSST results shown, other than for the baseline, are the mean results obtained from the DSST scores following all nights of Dosing Periods 1-5 for the indicated dose. The DSST results for the baseline are the mean results obtained following the first and second nights of the baseline visit. Note that for clarity of display purposes, in FIG. 6 many of the test results at each time period, e.g., at approximately ½ hour after lights-on/9 hours post-dosing, were staggered arbitrarily away from the actual time when the test was conducted.

clinical = format: in vivo, human
Description: (§1) The highest doses tested in healthy subjects were for a 30-mg single dose and a 10-mg multiple dose (once daily nighttime dose for 14 days). The highest dose tested in subjects with insomnia was 10 mg.

[2] = test system: healthy subjects and subjects with insomnia; format: in vivo, human
Description: as §1
The most frequent treatment-emergent adverse event (TEAEs) experienced by subjects was somnolence.

[3] = format: in vivo, human; conditions: Compound (1C) tablets administered orally
Text: The comparators in an abuse potential study are typically controlled substances from the same pharmacologic class as the investigational drug. However, Compound (1C) is a novel drug class for which no controlled substances/drugs of abuse are available for comparison. […] There was no evidence of other effects of interest to abusers, such as perceptual disturbances or stimulation. […] Placebo control was used to establish the frequency and magnitude of changes in clinical endpoints that may occur in the absence of active treatment as well as to minimize subject and investigator bias.

O=C(O)c1nc2ccccc2n([C@H]2C[C@H]3CCC[C@@H](C2)N3C2CC3CCCC(C3)C2)c1=O (some centres unmarked) [Compound (1C)]
next day residual effects by mean DSST results vs placebo ([1]; 0.5 mg, about 9 to about 16 hours post-dosing): no next day residual effects | next day residual effects by mean DSST results vs placebo ([1]; 1.0 mg, about 9 to about 16 hours post-dosing): no next day residual effects | next day residual effects by mean DSST results vs placebo ([1]; 3.0 mg, deviations at about 9, 10, 12, and 13 hours): minimal next day residual effects | next day residual effects by mean DSST results vs placebo ([1]; 6.0 mg, each of the testing times): some next day residual effects | major elimination pathway (clinical; human): Renal elimination | major metabolite in human plasma (clinical; human plasma): No major metabolite has been identified | renal clearance (adjusted by plasma protein binding) compared with glomerular filtration rate (clinical; human, in vivo): higher than the human glomerular filtration rate | Tmax (clinical; human, in vivo, po): ~1.5 h | half-life (clinical; human, in vivo, po): 120 to 180 min | dose proportionality of exposure (clinical; once a day dosing for 2 weeks): approximately dose-proportional exposure up to 10 mg | dose proportionality of exposure (clinical; single oral administration): approximately dose-proportional exposure up to 10 mg | unchanged drug recovered in urine (clinical; within 48 hours): 80-100% | tolerability ([2]; 6 mg, nighttime dosing, healthy subjects and those with insomnia): well tolerated | safety and tolerability ([2]; across all tested dose levels): safe and well tolerated | serious adverse events (SAEs) ([2]; across all tested dose levels): no serious adverse events | most frequent treatment-emergent adverse event ([2]; completed clinical studies): somnolence | vital signs and electrocardiograms (ECGs) ([2]; completed clinical studies): no clinically significant findings | next day residual effects ([2]; dose equal or lower than 2 mg, after 8 hours post dosing): dose-dependent and generally decreased (back to placebo levels) | laboratory findings ([2]; including crystalluria or hematuria): No concerning laboratory findings | Time to maximum concentration [3]: approximately 1.5 hours
